# Earlier results as cited in article PMC11711049 (Cancer Science, 2024).
# Columns and labels:
# [1] = system: cholangiocarcinoma with an FGFR2 gene fusion or other rearrangement; conditions: cholangiocarcinoma patients; cited from earlier work
# cholangiocarcinoma = conditions: first‐line, patients with cholangiocarcinoma; cited from earlier work
Compound,median OS [1],median PFS [1],response rate / ORR [1],ORR (cholangiocarcinoma),median OS (cholangiocarcinoma),median PFS (cholangiocarcinoma)
"CCN1C(=O)N(c2c(F)c(OC)cc(OC)c2F)Cc2cnc3[nH]c(CN4CCOCC4)cc3c21 [pemigatinib, Pemigatinib]",21.1 months,6.9 months,35.5%,–,–,–
gemcitabine and cisplatin,–,–,–,26%,11.7 months,8.0 months
